The record followed here is patent publication US9938269B2, “Inhibitor compounds of phosphodiesterase type 10A” (ABBVIE INC., priority 2011, dated 2018).

For one data set, the target named is T1, PDE10A (human) (Homo sapiens, UniProt Q9Y233).
T1 construct: purchased BPS Bioscience
Nature of the data set: Measurement of PDE activity (HTRF cAMP kit), human PDE10A. The data set is classed as biochemical. To be noted: PDE enzymatic reaction, substrate 20 nM for PDE10, 60 minutes at 29 C. Put shortly:
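Recombinant human PDE10A (10–250 pM range across PDEs) with 20 nM cAMP substrate in 20 mM Tris-HCl pH 7.5, 10 mM MgCl2, 0.1% BSA, compound pre-mixed with enzyme. Ran 60 min at 29 °C. Remaining cAMP read by HTRF, converted to % of uninhibited activity, and IC50 fitted.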
(In general: In TR-FRET formats the signal depends on donor and acceptor labels being close together.)

Data set [1] in a line: Determination of the microsomal half-life, rat liver microsomes. Particulars: rat, liver microsomes, pH 7.4. Background: Liver microsomes are a subcellular fraction often used to study metabolism.
A short description of data set [2]: Determination of the microsomal half-life, human liver microsomes. To be noted: human, liver microsomes, pH 7.4.

Where a name gives a salt, the structure may show the parent alone.

T1 sequence (Q9Y233 whole entry): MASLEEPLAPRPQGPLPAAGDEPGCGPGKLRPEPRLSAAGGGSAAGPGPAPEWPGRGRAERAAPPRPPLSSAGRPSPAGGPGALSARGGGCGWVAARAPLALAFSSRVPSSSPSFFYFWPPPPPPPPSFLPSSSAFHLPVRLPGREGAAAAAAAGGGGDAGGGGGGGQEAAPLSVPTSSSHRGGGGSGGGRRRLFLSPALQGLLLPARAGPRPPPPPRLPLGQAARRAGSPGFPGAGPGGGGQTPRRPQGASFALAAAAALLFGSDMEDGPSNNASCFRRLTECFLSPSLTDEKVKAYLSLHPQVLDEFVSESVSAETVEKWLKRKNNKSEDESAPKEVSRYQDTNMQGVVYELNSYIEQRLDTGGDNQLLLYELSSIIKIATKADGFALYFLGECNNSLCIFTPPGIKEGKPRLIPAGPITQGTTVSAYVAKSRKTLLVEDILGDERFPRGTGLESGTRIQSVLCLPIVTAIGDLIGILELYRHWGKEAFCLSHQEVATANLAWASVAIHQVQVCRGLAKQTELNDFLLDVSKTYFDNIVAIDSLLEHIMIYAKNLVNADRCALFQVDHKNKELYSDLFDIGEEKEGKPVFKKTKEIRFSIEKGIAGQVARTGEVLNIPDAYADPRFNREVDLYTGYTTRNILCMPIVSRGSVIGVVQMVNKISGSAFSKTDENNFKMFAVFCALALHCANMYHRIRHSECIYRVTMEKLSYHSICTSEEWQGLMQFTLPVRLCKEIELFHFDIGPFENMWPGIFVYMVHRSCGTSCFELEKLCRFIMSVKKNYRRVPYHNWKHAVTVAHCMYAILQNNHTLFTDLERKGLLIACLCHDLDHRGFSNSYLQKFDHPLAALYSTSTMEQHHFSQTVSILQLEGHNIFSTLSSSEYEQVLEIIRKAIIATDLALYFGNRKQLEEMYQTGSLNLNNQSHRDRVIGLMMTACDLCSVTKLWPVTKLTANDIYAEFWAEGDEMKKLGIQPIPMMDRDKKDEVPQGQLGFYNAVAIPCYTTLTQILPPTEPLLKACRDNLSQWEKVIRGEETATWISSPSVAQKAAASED

The IC50 is the concentration at which inhibition is half-maximal. By microsomal CLint is commonly meant a measure of how fast metabolising enzymes remove a compound, apart from limits set by blood flow. Low readings indicate slow turnover, high ones rapid turnover. Take `O=C1c2c(cccc2N2CCS(=O)(=O)CC2)CN1CCc1cn2ccccc2n1` [Example 234, 7-(1,1-Dioxothiomorpholin-4-yl)-2-(2-imidazo[1,2-a]pyridin-2-yl-ethyl)-2,3-dihydro-isoindol-1-one]: the IC50 against PDE10A (human) was less than 100 nM. Moreover, the microsomal CLint at 0.5 μM in data set [1] and in data set [2] was less than 100 µL/min/mg throughout.
Compound `O=C1c2cccc(-c3cscn3)c2CN1CCc1cn2ccccc2n1` [compound 537, 2-(2-Imidazo[1,2-a]pyridin-2-ylethyl)-4-thiazol-4-yl-isoindolin-1-one] had an IC50 at PDE10A (human) of less than 100 nM. Besides, the microsomal CLint at 0.5 μM in data set [1] is 100 to 220 µL/min/mg; in data set [2], less than 100 µL/min/mg.
For `COc1ccc(-c2ccc(OC)c3c2CN(CCc2cn4ccccc4n2)C3=O)cc1` [compound 457, 2-(2-Imidazo[1,2-a]pyridin-2-yl-ethyl)-7-methoxy-4-(4-methoxy-phenyl)-2,3-dihydro-isoindol-1-one trifluoroacetate], the IC50 against PDE10A (human) was less than 100 nM. In addition, the microsomal CLint at 0.5 μM in data set [1] and in data set [2] was 100 to 220 µL/min/mg in each case.
`Cc1cnc(CCN2Cc3nccc(-c4ccncc4)c3C2=O)c(C)c1` [compound 473, 6-[2-(3,5-Dimethyl-2-pyridyl)ethyl]-4-(4-pyridyl)-7H-pyrrolo[3,4-b]pyridin-5-one] had a concentration for half-maximal inhibition (IC50) against PDE10A (human) of 100 to 200 nM. Further, the microsomal CLint at 0.5 μM in data set [1] and in data set [2] was 100 to 220 µL/min/mg in each case.
Turning to `Cn1nccc1-c1cccc2c1C(=O)N(CCc1nc3ccccc3[nH]1)C2` [Example 313, 2-[2-(1H-Benzoimidazol-2-yl)-ethyl]-7-(2-methyl-2H-pyrazol-3-yl)-2,3-dihydro-isoindol-1-one trifluoroacetate], the IC50 on PDE10A (human) lay in the range of 200 to 500 nM. Besides, the microsomal CLint at 0.5 μM in data set [1] and in data set [2] was less than 100 µL/min/mg each time.
Regarding `Cc1cccn2cc(CCN3Cc4nccc(-c5ccncc5)c4C3=O)nc12` [compound 496, 6-[2-(8-Methylimidazo[1,2-a]pyridin-2-yl)ethyl]-4-(4-pyridyl)-7H-pyrrolo[3,4-b]pyridin-5-one trifluoroacetate], the IC50 against PDE10A (human) is less than 100 nM. The microsomal CLint at 0.5 μM in data set [1] and in data set [2] was less than 100 µL/min/mg throughout.
`COc1ccc(-c2ccc(F)c3c2C(=O)N(CCc2cn4ccccc4n2)C3)cc1` [Example 380, 4-Fluoro-2-(2-imidazo[1,2-a]pyridin-2-yl-ethyl)-7-(4-methoxy-phenyl)-2,3-dihydro-isoindol-1-one] yielded a 50% inhibitory concentration (IC50) at PDE10A (human) of 200 to 500 nM. Moreover, the microsomal CLint at 0.5 μM in data set [1] was more than 220 µL/min/mg; in data set [2] it was 100 to 220 µL/min/mg.
Turning to `Cn1c(CCN2Cc3nccc(N4CCOCC4)c3C2=O)nc2ccccc21` [Example 216, 6-[2-(1-Methyl-1H-benzoimidazol-2-yl)-ethyl]-4-morpholin-4-yl-6,7-dihydro-pyrrolo[3,4-b]pyridin-5-one], the IC50 on PDE10A (human) is less than 100 nM. The microsomal CLint at 0.5 μM in data set [1] and in data set [2] was less than 100 µL/min/mg each time.
As to `O=C1c2c(cccc2N2C[C@@H]3CCCNC[C@H]3C2)CN1CCc1ccc2ccccc2n1` [Example 317, 7-(3aS,8aR)-Octahydro-pyrrolo[3,4-c]azepin-2-yl-2-(2-quinolin-2-yl-ethyl)-2,3-dihydro-isoindol-1-one trifluoroacetate], the IC50 at PDE10A (human) lay within 200 to 500 nM. Besides, the results for the microsomal CLint at 0.5 μM in data set [1] and in data set [2] were less than 100 µL/min/mg and 100 to 220 µL/min/mg, respectively.
For `COc1ccc(-c2ccncc2)c2c1C(=O)N(CCc1cn3ccccc3n1)C2` [compound 448, 2-(2-Imidazo[1,2-a]pyridin-2-yl-ethyl)-7-methoxy-4-pyridin-4-yl-2,3-dihydro-isoindol-1-one trifluoroacetate] the same measures were less than 100 nM, less than 100 µL/min/mg and less than 100 µL/min/mg.
Turning to `O=C1c2c(N3CCOCC3)ccnc2CN1CCc1cnc2ccccc2n1` [compound 495, 4-Morpholino-6-(2-quinoxalin-2-ylethyl)-7H-pyrrolo[3,4-b]pyridin-5-one trifluoroacetate], the IC50 at PDE10A (human) was less than 100 nM. In addition, the microsomal CLint at 0.5 μM in data set [1] and in data set [2] was less than 100 µL/min/mg each time.
`COc1ccc(-c2ccnn2C)c2c1C(=O)N(CCc1cn3ccccc3n1)C2` [compound 464, 2-(2-Imidazo[1,2-a]pyridin-2-yl-ethyl)-7-methoxy-4-(2-methyl-2H-pyrazol-3-yl)-2,3-dihydro-isoindol-1-one trifluoroacetate] yielded an IC50 against PDE10A (human) of less than 100 nM. Besides, the microsomal CLint at 0.5 μM in data set [1] and in data set [2] was less than 100 µL/min/mg throughout.
Consider `Cn1c(CCN2Cc3cccc(-c4ccncc4)c3C2=O)nc2ccccc21` [Example 195, 2-[2-(1-Methyl-1H-benzoimidazol-2-yl)-ethyl]-7-pyridin-4-yl-2,3-dihydro-isoindol-1-one], for which, on PDE10A (human), the IC50 was less than 100 nM. The figures for the microsomal CLint at 0.5 μM in data set [1] and in data set [2] were 100 to 220 µL/min/mg and more than 220 µL/min/mg, respectively.
For the compound `O=C1c2c(-c3cncnc3)ccnc2CN1CCc1ccc2ccccc2n1` [Example 166, 4-Pyrimidin-5-yl-6-(2-quinolin-2-yl-ethyl)-6,7-dihydro-pyrrolo[3,4-b]pyridin-5-one], the IC50 on PDE10A (human) was less than 100 nM. The microsomal CLint at 0.5 μM in data set [1] and in data set [2] was less than 100 µL/min/mg each time.
For `O=C1c2cccc(-c3ccncc3)c2CN1CCc1nc2ccccc2s1` [compound 431, 2-[2-(1,3-Benzothiazol-2-yl)ethyl]-4-(4-pyridyl)isoindolin-1-one], the IC50 on PDE10A (human) lay in the range of 100 to 200 nM. The figures for the microsomal CLint at 0.5 μM in data set [1] and in data set [2] were more than 220 µL/min/mg and less than 100 µL/min/mg, respectively.
As for `O=C1c2c(cccc2-c2ccc3nn[nH]c3c2)CN1CCc1ccc2ccccc2n1` [Example 10, 7-(3H-Benzotriazol-5-yl)-2-(2-quinolin-2-yl-ethyl)-2,3-dihydro-isoindol-1-one trifluoroacetate], the IC50 at PDE10A (human) was less than 100 nM. Also, the values for the microsomal CLint at 0.5 μM in data set [1] and in data set [2] were less than 100 µL/min/mg and 100 to 220 µL/min/mg, respectively.
For `Cn1c(CCN2Cc3nccc(-c4cncnc4)c3C2=O)nc2ccccc21` [Example 364, 6-[2-(1-Methyl-1H-benzoimidazol-2-yl)-ethyl]-4-pyrimidin-5-yl-6,7-dihydro-pyrrolo[3,4-b]pyridin-5-one] the same measures were less than 100 nM, less than 100 µL/min/mg and less than 100 µL/min/mg.
For the compound `COc1ccc(-c2cncnc2)c2c1C(=O)N(CCc1cn3ccccc3n1)C2` [compound 549, 2-(2-Imidazo[1,2-a]pyridin-2-yl-ethyl)-7-methoxy-4-pyrimidin-5-yl-2,3-dihydro-isoindol-1-one trifluoroacetate], at PDE10A (human), the IC50 is less than 100 nM. Also, the microsomal CLint at 0.5 μM in data set [1] and in data set [2] was less than 100 µL/min/mg each time.
On PDE10A (human), `O=C1c2c(-c3ccncc3)cccc2C(F)(F)N1CCc1ccc2ccccc2n1` [Example 4, 3,3-Difluoro-7-pyridin-4-yl-2-(2-quinolin-2-yl-ethyl)-2,3-dihydro-isoindol-1-one] came in with an IC50 of less than 100 nM. For the same compound, the microsomal CLint at 0.5 μM is more than 220 µL/min/mg in data set [1] and 100 to 220 µL/min/mg in data set [2].
At PDE10A (human), `Cc1ccc2c(c1)nc(CCN1Cc3nccc(-c4ccncc4)c3C1=O)n2C` [compound 536, 6-[2-(1,5-Dimethyl-1H-benzoimidazol-2-yl)-ethyl]-4-pyridin-4-yl-6,7-dihydro-pyrrolo[3,4-b]pyridin-5-one] yielded an IC50 of less than 100 nM. Moreover, the figures for the microsomal CLint at 0.5 μM in data set [1] and in data set [2] were less than 100 µL/min/mg and 100 to 220 µL/min/mg, respectively.
For `O=C1c2c(cccc2-c2ccc3[nH]c(=O)[nH]c3c2)CN1CCc1ccc2ccccc2n1` [Example 9, 5-[3-oxo-2-(2-quinolin-2-yl-ethyl)-2,3-dihydro-1H-isoindol-4-yl]-1,3-dihydro-benzoimidazol-2-one trifluoroacetate] the same measures were less than 100 nM, 100 to 220 µL/min/mg and less than 100 µL/min/mg.
For `COc1ccc(-c2ccnc3c2C(=O)N(CCc2nc4ccccc4s2)C3)cc1` [compound 541, 6-[2-(1,3-Benzothiazol-2-yl)ethyl]-4-(4-methoxyphenyl)-7H-pyrrolo[3,4-b]pyridin-5-one trifluoroacetate] the same measures were 100 to 200 nM, 100 to 220 µL/min/mg and less than 100 µL/min/mg.
Taken in the same sequence, the figures for `CCc1csc(CCN2Cc3nccc(N4CCOCC4)c3C2=O)n1` [compound 516, 6-[2-(4-Ethylthiazol-2-yl)ethyl]-4-morpholino-7H-pyrrolo[3,4-b]pyridin-5-one] were less than 100 nM, 100 to 220 µL/min/mg and less than 100 µL/min/mg.
The compound `O=C1c2c(N3CCOCC3)ccnc2CN1CCc1nc2ccccc2s1` [Example 377, 6-(2-Benzothiazol-2-yl-ethyl)-4-morpholin-4-yl-6,7-dihydro-pyrrolo[3,4-b]pyridin-5-one] had an IC50 at PDE10A (human) of less than 100 nM. Also, the intrinsic clearance (microsomal CLint) at 0.5 μM in data set [1] and in data set [2] was less than 100 µL/min/mg throughout.
On PDE10A (human), `Cn1nccc1-c1ccnc2c1C(=O)N(CCc1ccc3ccccc3n1)C2` [Example 162, 4-(2-Methyl-2H-pyrazol-3-yl)-6-(2-quinolin-2-yl-ethyl)-6,7-dihydro-pyrrolo[3,4-b]pyridin-5-one hydrochloride] displayed an IC50 of less than 100 nM. The microsomal CLint at 0.5 μM in data set [1] and in data set [2] was less than 100 µL/min/mg each time.
The compound `O=C1c2c(N3CCS(=O)(=O)CC3)ccnc2CN1CCc1ccc2ccccc2n1` [Example 137, 4-(1,1-Dioxo-thiomorpholin-4-yl)-6-(2-quinolin-2-yl-ethyl)-6,7-dihydro-pyrrolo[3,4-b]pyridin-5-one] came in with an IC50 against PDE10A (human) of less than 100 nM. Also, the microsomal CLint at 0.5 μM in data set [1] and in data set [2] was less than 100 µL/min/mg each time.
